Holding throughout (experiment): NCI-60 cell line screen, 48 h
For assay [1], the system named is K562.
Assay [2] concerns MDA-MB-435.
Assay [3] has as its system SF-268.
The test system of assay [4] is OVCAR-5.
The test system of assay [5] is EKVX.
Assay [6] relates to UACC-62.
For assay [7], the system named is MOLT-4.
The test system of assay [8] is UO-31.
The subject of assay [9] is BT-549.
The test system of assay [10] is NCI-H23.
The subject of assay [11] is OVCAR-8.
For assay [12], the system named is OVCAR-3.
Assay [13] has as its system HCC 2998.
Assay [14] deals with HCT-116.
Assay [15] deals with SN12C.
Assay [16] concerns SNB-19.
The test system of assay [17] is SF-539.
Assay [18] deals with HCT-15.
In assay [19] the test system is TK-10.
The subject of assay [20] is SK-MEL-5.

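Values below derive from 48-hour exposures of cells grown in 96-well plates, with endpoints linearly interpolated between the two concentrations bracketing the appropriate inhibition level. GI50: concentration for 50% inhibition of growth.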 Active and inactive are the calls of the source. No stated cut-off is given here; in the data, active = GI50 up to about 1.1 µM and inactive = higher. Square brackets hold non-standard residues; d marks the D form. Peptide text beside a SMILES is read from it. Phe(4-Cl) = N[CH](Cc1ccc(Cl)cc1)C(=O)O; 2Nal = N[CH](Cc1ccc2ccccc2c1)C(=O)O; 3Pal = N[CH](Cc1cccnc1)C(=O)O

Here are results for ten molecules from ChEMBL document CHEMBL1201862, “PubChem BioAssay data set” (2004).

For `COc1ccc(C(c2ccccc2)N2C(=O)CCC2C(=O)O)cc1OC` (stereo not drawn), the GI50 in [1], in assay [2], in [3], in [4], in assay [5] and in assay [6] was > 100 µM (inactive) throughout. Also, the GI50 in assay [7], in assay [8], in [9], in assay [10], in assay [11] and in [12] was > 100 µM (inactive) in each case. The GI50 is > 100 µM (inactive) in assay [13]; > 100 µM (inactive) in assay [14]; > 100 µM (inactive) in [15]; > 100 µM (inactive) in assay [16]; > 100 µM (inactive) in assay [17]; over 100 µM in assay [18]. The GI50 in assay [19] and in assay [20] was > 100 µM (inactive) throughout.
Consider `[O-]c1c[n+](-c2ccccc2)no1`, for which the GI50 in [1], in assay [2], in assay [3], in assay [4], in assay [5] and in assay [6] was > 100 µM (inactive) each time. Further, the GI50 in assay [8], in [9], in [10], in assay [12], in assay [13] and in [14] was > 100 µM (inactive) throughout. Further, the GI50 in assay [15] is > 100 µM (inactive); in assay [16] it was > 100 µM (inactive); in assay [17] it was > 100 µM (inactive); in assay [18], over 100 µM; in assay [19], > 100 µM (inactive); in assay [20], > 100 µM (inactive).
Regarding `C=C(C)/C=C/C(O)[C@](C)(O)[C@H]1[C@H](O)C[C@@]2(C)[C@@H]3CCc4c(cc(OC5OC(CO)C(O)C(O)C5O)c(O)c4C)C3(C)C(=O)C[C@]12C` (stereo partly drawn), the GI50 in assay [1] is > 100 µM (inactive); in assay [2] it was > 100 µM (inactive); in assay [3] it was > 100 µM (inactive); in [4], > 100 µM (inactive); in assay [5], > 100 µM (inactive); in assay [6], 49 µM (inactive). Besides, the GI50 is > 100 µM (inactive) in assay [7]; > 100 µM (inactive) in assay [8]; > 10 µM (inactive) in assay [9]; 64.4 µM (inactive) in assay [10]; > 100 µM (inactive) in assay [11]; > 100 µM (inactive) in [12]. The GI50 in assay [13] is > 100 µM (inactive); in assay [14], > 100 µM (inactive); in assay [15], > 100 µM (inactive); in assay [16], > 100 µM (inactive); in assay [17], 96.4 µM (inactive); in [18], over 100 µM. Besides, the GI50 in [19] and in assay [20] was > 100 µM (inactive) each time.
In the case of `CCN(CC)S(=O)(=O)c1ccc2[nH]c(NC(=O)OC)nc2c1`, the GI50 in assay [1] is 32.1 µM (inactive); in assay [2], 15.3 µM (inactive); in assay [3], 99.3 µM (inactive); in assay [4], > 100 µM (inactive); in assay [5], > 100 µM (inactive); in assay [7], 20.4 µM (inactive). Besides, the GI50 in assay [8] was 46.3 µM (inactive); in [9] it was > 100 µM (inactive); in assay [10], > 100 µM (inactive); in assay [11], 45.1 µM (inactive); in assay [12], 80.9 µM (inactive); in assay [13] it was 7 µM (inactive). Further, the GI50 was 37.4 µM (inactive) in assay [14]; > 100 µM (inactive) in [15]; 70.5 µM (inactive) in assay [16]; 30 µM (inactive) in [17]; 47.2 µM in assay [18]; 6.47 µM (inactive) in [19]. Also, the GI50 in [20] was 98.9 µM (inactive).
Take `CC(=O)NC(Cc1ccc2ccccc2c1)C(=O)NC(Cc1ccc(Cl)cc1)C(=O)NC(Cc1cccnc1)C(=O)NC(CO)C(=O)NC(Cc1ccc(O)cc1)C(=O)NC(CCCN=C(N)N)C(=O)NC(CC(C)C)C(=O)NC(CCCN=C(N)N)C(=O)N1CCCC1C(=O)NC(C)C(N)=O` (stereo not drawn) (Ac-[2Nal][Phe(4-Cl)][3Pal]SYRLRPA-NH2; configuration not given here): the GI50 is > 100 µM (inactive) in [1]; 82.8 µM (inactive) in [2]; > 100 µM (inactive) in assay [4]; > 100 µM (inactive) in [5]; 77.4 µM (inactive) in assay [6]; > 100 µM (inactive) in assay [7]. For the same molecule, the GI50 in [8] was > 100 µM (inactive); in [9], > 100 µM (inactive); in [10], > 100 µM (inactive); in assay [11], > 100 µM (inactive); in [12], 49.9 µM (inactive); in assay [13], > 100 µM (inactive). Further, the GI50 in assay [15] is > 100 µM (inactive); in [16], > 100 µM (inactive); in [17], > 100 µM (inactive); in assay [18], over 100 µM; in assay [19], > 100 µM (inactive); in [20], 94 µM (inactive).
As to `COc1cc(Cn2c3c(c4c(C(=O)NCCN(C)C)c(O)ccc42)C(=O)c2ccccc2C3=O)cc(OC)c1`, the GI50 in [1] was 1.37 µM (inactive); in assay [2], 1.75 µM (inactive); in assay [3] it was 1.99 µM (inactive); in assay [4], 1.67 µM (inactive); in assay [5], 1.82 µM (inactive); in [6], 1.91 µM (inactive). Further, the GI50 in assay [8] is 1.71 µM (inactive); in assay [9], 2.23 µM (inactive); in assay [10], 2.09 µM (inactive); in assay [11], 1.91 µM (inactive); in [12] it was 1.73 µM (inactive); in assay [13] it was 1.13 µM (inactive). Further, the GI50 in assay [14] is 1.76 µM (inactive); in assay [15], 1.85 µM (inactive); in [16], 2.51 µM (inactive); in assay [17], 1.79 µM (inactive); in assay [18], 1.88 µM; in assay [19] it was 1.61 µM (inactive). The GI50 in assay [20] was 1.67 µM (inactive).
In the case of `COc1cc2c(c(OC)c1OC)C(=O)CC2N` (stereo not drawn), the GI50 in [1], in [2], in [3], in assay [4], in [5] and in [6] was > 100 µM (inactive) in each case. The GI50 in [7], in assay [8], in [9], in assay [10], in assay [11] and in assay [12] was > 100 µM (inactive) in each case. In addition, the GI50 in assay [13] was > 100 µM (inactive); in assay [14] it was > 100 µM (inactive); in [16], > 100 µM (inactive); in [17], > 100 µM (inactive); in assay [18] it was over 100 µM; in assay [19], > 100 µM (inactive). Further, in [20], the GI50 is > 100 µM (inactive).
Turning to `Cc1ccc(O)c(/N=N\c2c(O)cc(S(=O)(=O)O)c3ccccc23)c1`, the GI50 in assay [1] is 32.2 µM (inactive); in assay [2], 56.9 µM (inactive); in assay [3], > 100 µM (inactive); in assay [4], 45.6 µM (inactive); in assay [5], 96.4 µM (inactive); in [6], 25.7 µM (inactive). Also, the GI50 in assay [7] was 26.5 µM (inactive); in [8], 17.3 µM (inactive); in assay [9], 81.7 µM (inactive); in assay [11], 26.2 µM (inactive); in assay [12], 22.5 µM (inactive); in assay [13] it was > 100 µM (inactive). Besides, the GI50 in assay [14] is 25.5 µM (inactive); in [17], 62.5 µM (inactive); in [18], 43.6 µM; in [19] it was > 100 µM (inactive); in assay [20] it was 20.7 µM (inactive).
With `Nc1nc(Cl)cc(NCC2(CO)CC(CCc3ccccc3)C2)n1` (stereo not drawn), the GI50 in [1] was 1.42 µM (inactive); in assay [2] it was > 100 µM (inactive); in assay [3] it was > 55.8 µM (inactive); in assay [4] it was > 100 µM (inactive); in [5], 2.83 µM (inactive); in assay [6] it was > 58.6 µM (inactive). Also, the GI50 in [7] was 8.38 µM (inactive); in assay [8] it was > 75.2 µM (inactive); in assay [9], > 32.8 µM (inactive); in [10] it was 10.5 µM (inactive); in assay [11], 21.8 µM (inactive); in assay [12], 5.07 µM (inactive). In addition, the GI50 was > 100 µM (inactive) in assay [13]; > 100 µM (inactive) in [15]; > 100 µM (inactive) in assay [16]; > 100 µM (inactive) in assay [17]; over 59.2 µM in [18]; > 70.5 µM (inactive) in assay [19]. Moreover, the GI50 in [20] is 0.506 µM (active).
`CN(C)CCSCCO`: the GI50 in [1], in assay [2], in assay [3], in assay [4], in assay [5] and in assay [6] was > 100 µM (inactive) in each case. For the same molecule, the GI50 in [8], in [9], in assay [10], in assay [11], in [12] and in assay [13] was > 100 µM (inactive) throughout. Moreover, the GI50 is > 100 µM (inactive) in assay [14]; > 100 µM (inactive) in [15]; > 100 µM (inactive) in assay [16]; > 100 µM (inactive) in assay [17]; over 100 µM in [18]; > 100 µM (inactive) in assay [19]. The GI50 in assay [20] is > 100 µM (inactive).
